Test results reported in US6632799B2, “Injectable ready-to-use solutions containing an antitumor anthracycline glycoside” (Pharmacia & Upjohn Company, priority 1985, dated 2003).
Counter-ions that a name gives are not always drawn.

Assay: pH-stability profile at 55° C. of doxorubicin.HCl solutions in sterile water, 5% dextrose, 0.9% saline
Assay type: physicochemical

pH range of maximum stability (2 mg/ml, 55° C., all three media, ±0.2): 3.0-3.5
Kobs × 10^3 (0.9% saline, Acetate pH 4.0, 55° C.): 215.7 1/days
Kobs × 10^3 (0.9% saline, Acetate pH 5.0, 55° C.): 301.2 1/days
Kobs × 10^3 (0.9% saline, Acetate pH 5.5, 55° C.): 430.3 1/days
Kobs × 10^3 (0.9% saline, Formate pH 3.5, 55° C.): 148.1 1/days
Kobs × 10^3 (0.9% saline, Glycine-HCl pH 2.0, 55° C.): 362.4 1/days
Kobs × 10^3 (0.9% saline, Glycine-HCl pH 2.5, 55° C.): 276.5 1/days
Kobs × 10^3 (0.9% saline, Glycine-HCl pH 3.0, 55° C.): 133.2 1/days
Doxorubicin.HCl % stability (0.9% saline, pH 2.5 buffer, 55° C., 0 hours): 100.0%
Doxorubicin.HCl % stability (0.9% saline, pH 2.5 buffer, 55° C., 16 hours): 85.8%
Doxorubicin.HCl % stability (0.9% saline, pH 2.5 buffer, 55° C., 24 hours): 82.3%
Doxorubicin.HCl % stability (0.9% saline, pH 2.5 buffer, 55° C., 34 hours): 70.3%
Doxorubicin.HCl % stability (0.9% saline, pH 2.5 buffer, 55° C., 48 hours): 58.1%
Doxorubicin.HCl % stability (0.9% saline, pH 3.0 buffer, 55° C., 0 hours): 100.0%
Doxorubicin.HCl % stability (0.9% saline, pH 3.0 buffer, 55° C., 16 hours): 91.2%
Doxorubicin.HCl % stability (0.9% saline, pH 3.0 buffer, 55° C., 24 hours): 88.8%
Doxorubicin.HCl % stability (0.9% saline, pH 3.0 buffer, 55° C., 48 hours): 78.8%
Doxorubicin.HCl % stability (0.9% saline, pH 3.0 buffer, 55° C., 72 hours): 69.0%
Doxorubicin.HCl % stability (0.9% saline, pH 3.0 buffer, 55° C., 96 hours): 60.4%
Doxorubicin.HCl % stability (0.9% saline, pH 3.0 buffer, 55° C., 120 hours): 50.3%
Doxorubicin.HCl % stability (0.9% saline, pH 3.5 buffer, 55° C., 0 hours): 100.0%
Doxorubicin.HCl % stability (0.9% saline, pH 3.5 buffer, 55° C., 16 hours): 91.4%
Doxorubicin.HCl % stability (0.9% saline, pH 3.5 buffer, 55° C., 24 hours): 87.2%
Doxorubicin.HCl % stability (0.9% saline, pH 3.5 buffer, 55° C., 48 hours): 77.3%
Doxorubicin.HCl % stability (0.9% saline, pH 3.5 buffer, 55° C., 96 hours): 58.9%
Doxorubicin.HCl % stability (0.9% saline, pH 3.5 buffer, 55° C., 120 hours): 46.0%
Kobs × 10^3 (5% dextrose, Acetate pH 4.0, 55° C.): 209.7 1/days
Kobs × 10^3 (5% dextrose, Acetate pH 5.0, 55° C.): 273.1 1/days
Kobs × 10^3 (5% dextrose, Acetate pH 5.5, 55° C.): 453.7 1/days
Kobs × 10^3 (5% dextrose, Formate pH 3.5, 55° C.): 132.0 1/days
Kobs × 10^3 (5% dextrose, Glycine-HCl pH 2.0, 55° C.): 323.8 1/days
Kobs × 10^3 (5% dextrose, Glycine-HCl pH 2.5, 55° C.): 138.7 1/days
Kobs × 10^3 (5% dextrose, Glycine-HCl pH 3.0, 55° C.): 100.5 1/days
Doxorubicin.HCl % stability (5% dextrose, pH 2.0 buffer, 55° C., 0 hours): 100.0%
Doxorubicin.HCl % stability (5% dextrose, pH 2.0 buffer, 55° C., 8 hours): 92.8%
Doxorubicin.HCl % stability (5% dextrose, pH 2.0 buffer, 55° C., 16 hours): 84.4%
Doxorubicin.HCl % stability (5% dextrose, pH 2.0 buffer, 55° C., 24 hours): 75.9%
Doxorubicin.HCl % stability (5% dextrose, pH 2.0 buffer, 55° C., 34 hours): 68.3%
Doxorubicin.HCl % stability (5% dextrose, pH 2.0 buffer, 55° C., 48 hours): 54.1%
Doxorubicin.HCl % stability (5% dextrose, pH 2.0 buffer, 55° C., 72 hours): 38.4%
Doxorubicin.HCl % stability (5% dextrose, pH 2.5 buffer, 55° C., 0 hours): 100.0%
Doxorubicin.HCl % stability (5% dextrose, pH 2.5 buffer, 55° C., 8 hours): 96.4%
Doxorubicin.HCl % stability (5% dextrose, pH 2.5 buffer, 55° C., 16 hours): 92.6%
Doxorubicin.HCl % stability (5% dextrose, pH 2.5 buffer, 55° C., 24 hours): 89.5%
Doxorubicin.HCl % stability (5% dextrose, pH 2.5 buffer, 55° C., 34 hours): 85.5%
Doxorubicin.HCl % stability (5% dextrose, pH 2.5 buffer, 55° C., 48 hours): 76.2%
Doxorubicin.HCl % stability (5% dextrose, pH 2.5 buffer, 55° C., 72 hours): 66.3%
Doxorubicin.HCl % stability (5% dextrose, pH 3.0 buffer, 55° C., 0 hours): 100.0%
Doxorubicin.HCl % stability (5% dextrose, pH 3.0 buffer, 55° C., 16 hours): 96.6%
Doxorubicin.HCl % stability (5% dextrose, pH 3.0 buffer, 55° C., 24 hours): 92.7%
Doxorubicin.HCl % stability (5% dextrose, pH 3.0 buffer, 55° C., 48 hours): 83.3%
Doxorubicin.HCl % stability (5% dextrose, pH 3.0 buffer, 55° C., 72 hours): 76.4%
Doxorubicin.HCl % stability (5% dextrose, pH 3.0 buffer, 55° C., 96 hours): 68.0%
Doxorubicin.HCl % stability (5% dextrose, pH 3.0 buffer, 55° C., 120 hours): 61.1%
Doxorubicin.HCl % stability (5% dextrose, pH 3.5 buffer, 55° C., 0 hours): 100.0%
Doxorubicin.HCl % stability (5% dextrose, pH 3.5 buffer, 55° C., 16 hours): 95.7%
Doxorubicin.HCl % stability (5% dextrose, pH 3.5 buffer, 55° C., 24 hours): 93.7%
Doxorubicin.HCl % stability (5% dextrose, pH 3.5 buffer, 55° C., 48 hours): 81.8%
Doxorubicin.HCl % stability (5% dextrose, pH 3.5 buffer, 55° C., 72 hours): 66.8%
Doxorubicin.HCl % stability (5% dextrose, pH 3.5 buffer, 55° C., 96 hours): 61.6%
Doxorubicin.HCl % stability (5% dextrose, pH 4.0 buffer, 55° C., 0 hours): 100.0%
Doxorubicin.HCl % stability (5% dextrose, pH 4.0 buffer, 55° C., 8 hours): 95.5%
Doxorubicin.HCl % stability (5% dextrose, pH 4.0 buffer, 55° C., 16 hours): 85.6%
Doxorubicin.HCl % stability (5% dextrose, pH 4.0 buffer, 55° C., 48 hours): 65.5%
Doxorubicin.HCl % stability (5% dextrose, pH 4.0 buffer, 55° C., 72 hours): 53.9%
Doxorubicin.HCl % stability (5% dextrose, pH 5.0 buffer, 55° C., 0 hours): 100.0%
Doxorubicin.HCl % stability (5% dextrose, pH 5.0 buffer, 55° C., 8 hours): 94.7%
Doxorubicin.HCl % stability (5% dextrose, pH 5.0 buffer, 55° C., 16 hours): 83.2%
Doxorubicin.HCl % stability (5% dextrose, pH 5.0 buffer, 55° C., 24 hours): 79.9%
Doxorubicin.HCl % stability (5% dextrose, pH 5.0 buffer, 55° C., 34 hours): 70.4%
Doxorubicin.HCl % stability (5% dextrose, pH 5.0 buffer, 55° C., 48 hours): 57.8%
Doxorubicin.HCl % stability (5% dextrose, pH 5.5 buffer, 55° C., 0 hours): 100.0%
Doxorubicin.HCl % stability (5% dextrose, pH 5.5 buffer, 55° C., 8 hours): 92.5%
Doxorubicin.HCl % stability (5% dextrose, pH 5.5 buffer, 55° C., 16 hours): 73.8%
Doxorubicin.HCl % stability (5% dextrose, pH 5.5 buffer, 55° C., 24 hours): 62.6%
Doxorubicin.HCl % stability (5% dextrose, pH 5.5 buffer, 55° C., 34 hours): 54.8%
Kobs × 10^3 (sterile water, Acetate pH 4.0, 55° C.): 269.8 1/days
Kobs × 10^3 (sterile water, Acetate pH 5.0, 55° C.): 322.6 1/days
Kobs × 10^3 (sterile water, Acetate pH 5.5, 55° C.): 415.4 1/days
Kobs × 10^3 (sterile water, Formate pH 3.5, 55° C.): 96.7 1/days
Kobs × 10^3 (sterile water, Glycine-HCl pH 2.0, 55° C.): 309.5 1/days
Kobs × 10^3 (sterile water, Glycine-HCl pH 2.5, 55° C.): 138.3 1/days
Kobs × 10^3 (sterile water, Glycine-HCl pH 3.0, 55° C.): 93.1 1/days
Doxorubicin.HCl % stability (sterile water, pH 2.0 buffer, 55° C., 0 hours): 100.0%
Doxorubicin.HCl % stability (sterile water, pH 2.0 buffer, 55° C., 8 hours): 93.6%
Doxorubicin.HCl % stability (sterile water, pH 2.0 buffer, 55° C., 16 hours): 82.6%
Doxorubicin.HCl % stability (sterile water, pH 2.0 buffer, 55° C., 24 hours): 76.9%
Doxorubicin.HCl % stability (sterile water, pH 2.0 buffer, 55° C., 48 hours): 56.6%
Doxorubicin.HCl % stability (sterile water, pH 2.0 buffer, 55° C., 72 hours): 39.6%
Doxorubicin.HCl % stability (sterile water, pH 2.5 buffer, 55° C., 0 hours): 100.0%
Doxorubicin.HCl % stability (sterile water, pH 2.5 buffer, 55° C., 8 hours): 96.7%
Doxorubicin.HCl % stability (sterile water, pH 2.5 buffer, 55° C., 16 hours): 92.1%
Doxorubicin.HCl % stability (sterile water, pH 2.5 buffer, 55° C., 24 hours): 86.2%
Doxorubicin.HCl % stability (sterile water, pH 2.5 buffer, 55° C., 48 hours): 78.2%
Doxorubicin.HCl % stability (sterile water, pH 3.0 buffer, 55° C., 0 hours): 100.0%
Doxorubicin.HCl % stability (sterile water, pH 3.0 buffer, 55° C., 8 hours): 97.8%
Doxorubicin.HCl % stability (sterile water, pH 3.0 buffer, 55° C., 16 hours): 93.9%
Doxorubicin.HCl % stability (sterile water, pH 3.0 buffer, 55° C., 24 hours): 91.4%
Doxorubicin.HCl % stability (sterile water, pH 3.0 buffer, 55° C., 48 hours): 84.7%
Doxorubicin.HCl % stability (sterile water, pH 3.0 buffer, 55° C., 72 hours): 76.1%
Doxorubicin.HCl % stability (sterile water, pH 3.0 buffer, 55° C., 120 hours): 62.8%
Doxorubicin.HCl % stability (sterile water, pH 3.5 buffer, 55° C., 0 hours): 100.0%
Doxorubicin.HCl % stability (sterile water, pH 3.5 buffer, 55° C., 8 hours): 95.8%
Doxorubicin.HCl % stability (sterile water, pH 3.5 buffer, 55° C., 16 hours): 92.7%
Doxorubicin.HCl % stability (sterile water, pH 3.5 buffer, 55° C., 24 hours): 90.4%
Doxorubicin.HCl % stability (sterile water, pH 3.5 buffer, 55° C., 48 hours): 81.1%
Doxorubicin.HCl % stability (sterile water, pH 3.5 buffer, 55° C., 72 hours): 75.6%
Doxorubicin.HCl % stability (sterile water, pH 3.5 buffer, 55° C., 120 hours): 61.0%
Doxorubicin.HCl % stability (sterile water, pH 4.0 buffer, 55° C., 0 hours): 100.0%
Doxorubicin.HCl % stability (sterile water, pH 4.0 buffer, 55° C., 8 hours): 88.0%
Doxorubicin.HCl % stability (sterile water, pH 4.0 buffer, 55° C., 16 hours): 82.7%
Doxorubicin.HCl % stability (sterile water, pH 4.0 buffer, 55° C., 24 hours): 76.8%
Doxorubicin.HCl % stability (sterile water, pH 4.0 buffer, 55° C., 48 hours): 57.4%
Doxorubicin.HCl % stability (sterile water, pH 5.0 buffer, 55° C., 0 hours): 100.0
Doxorubicin.HCl % stability (sterile water, pH 5.0 buffer, 55° C., 8 hours): 90.3
Doxorubicin.HCl % stability (sterile water, pH 5.0 buffer, 55° C., 16 hours): 83.6
Doxorubicin.HCl % stability (sterile water, pH 5.0 buffer, 55° C., 24 hours): 74.9
Doxorubicin.HCl % stability (sterile water, pH 5.5 buffer, 55° C., 0 hours): 100.0%
Doxorubicin.HCl % stability (sterile water, pH 5.5 buffer, 55° C., 8 hours): 88.3%
Doxorubicin.HCl % stability (sterile water, pH 5.5 buffer, 55° C., 16 hours): 69.7%
Doxorubicin.HCl % stability (sterile water, pH 5.5 buffer, 55° C., 24 hours): 60.0%
Doxorubicin.HCl % stability (sterile water, pH 5.5 buffer, 55° C., 48 hours): 44.1%
SMILES: COc1cccc2c1C(=O)c1c(O)c3c(c(O)c1C2=O)C[C@@](O)(C(=O)CO)C[C@@H]3O[C@H]1C[C@H](N)[C@H](O)[C@H](C)O1 [Doxorubicin.HCl, doxorubicin hydrochloride]
